Assay results: US20240408057A1, “Composition for preventing or treating cachexia and muscle loss” (METAFINES.CO.LTD., priority 2023, published 2024)

What was measured:
Format in all cases: cell-based, mouse
PDK-4 [1] = assay: PDK-4 expression (Western blot) in CCM-treated C2C12 myotubes; settings: for expression of PDK-4: C2C12 myotubes + CCM, 72 hours, comparison experiment with components alone and in combination; for expression level of PDK-4: C2C12 myotubes, differentiation medium:CCM 1:1, 72 hours, three predetermined concentrations, vs CCM control
Method: (§1) C2C12 cell line was dispensed into a 6-well plate at 4.0×10^5 cells/well and cultured in DMEM medium containing 10% fetal bovine serum (FBS) under 37° C. and 5% CO2 conditions for one day. When the cell density reached about 80%, the medium was replaced with a differentiation medium and the cells were cultured for additional 3 days. […] After culturing for 72 hours, the cells were collected and analyzed for PDK-4, which is a target marker, by Western blot and the results are summarized in FIG. 6.
(§2) A C2C12 cell line was dispensed into a 6-well plate at 4.0×10^5 cells/well, and then cultured in DMEM medium containing 10% fetal bovine serum (FBS) under 37° C. and 5% CO2 conditions for one day. When the cell density reached about 80%, the medium was replaced with a differentiation medium and the cells were cultured for additional 3 days.
Subsequently, MuRF1, Atrogin1, MyHC, Myogenin (muscle markers) and Calpain 3, PDK-4, and GDF-15 (other target markers for muscle related disease) were analyzed using Western blot, and the relative expression levels for the markers are shown in FIGS. 26 and 28.

Calpain 3 = Calpain 3 expression (Western blot) in CCM-treated C2C12 myotubes
Method: as §1
The experiment was performed in the same manner as in Experimental Example 3-1, except that Calpain 3 was analyzed as a target marker for Western blot, and the results are summarized in FIG. 7.
as §2

GDF-15 = GDF-15 expression (Western blot) in CCM-treated C2C12 myotubes; settings: for expression of GDF-15: C2C12 myotubes + CCM, 72 hours, comparison experiment with components alone and in combination; for expression level of GDF-15: C2C12 myotubes, differentiation medium:CCM 1:1, 72 hours, three predetermined concentrations, vs CCM control
Method: as §1
The analysis was performed in the same manner as in Experimental Example 4-1 except for analyzing GDF-15 as a target marker for a Western blot, and the results are summarized in FIGS. 8 and 9.
The analysis was performed in the same manner as in Experimental Example 3-1 except for analyzing PDK-4 as a target marker for Western blot, and the results are summarized in FIGS. 10 and 11.
as §2

MuRF1 [2] = assay: MuRF1 expression (Western blot) in CCM-treated C2C12 myotubes; settings: 72 hours, compared to other experimental groups (components alone and in combination)
Method: (§3) A C2C12 cell line was dispensed into a 6-well plate at 4.0×10^5 cells/well, and then cultured in DMEM medium containing 10% fetal bovine serum (FBS) under 37° C. and 5% CO2 conditions for one day. When the cell density reached about 80%, the medium was replaced with a differentiation medium and the cells were cultured for additional 3 days. After confirming completion of differentiation of the cells, the cells were treated with a mixture, in which the differentiation medium and cancer-cell conditioned medium (CCM) were mixed at a 1:1 ratio, to form a control group, and simultaneously, a test group was set up by treating with the calcium salts of Preparation Examples 1 to 3 according to three predetermined concentrations.
as §2

Atrogin1 [3] = assay: Atrogin1 expression (Western blot) in CCM-treated C2C12 myotubes; settings: 72 hours, compared to other experimental groups (components alone and in combination)
Method: as §3, §2

MyHC [4] = assay: MyHC expression (Western blot) in CCM-treated C2C12 myotubes; settings: 72 hours, compared to other experimental groups (components alone and in combination)
Method: as §3, §2

Myogenin [5] = assay: Myogenin expression (Western blot) in CCM-treated C2C12 myotubes; settings: 72 hours, compared to other experimental groups (components alone and in combination)
Method: as §3, §2

C2C12 myotube cells [6] = assay: Myotube diameter of C2C12 myotubes treated with inducers (no CCM); settings: 72 hours
Method: (§4) A C2C12 cell line was dispensed into a 6-well plate at 4.0×10^5 cells/well, and then cultured in DMEM medium containing 10% fetal bovine serum (FBS) under 37° C. and 5% CO2 conditions for one day. When the cell density reached about 80%, the medium was replaced with a differentiation medium and the cells were cultured for additional 3 days to set up a normal control group, and simultaneously a test group was set up by treatment with WY-14643, which is a PDK-4 activator, at a concentration of 50 μM. […] Scale bars inserted in FIGS. 13A and 13B represent a horizontal length of 50 μm. Referring to FIG. 13, it was confirmed that the diameter of myotube cells decreased when treated with the PDK-4 activator (i.e., WY-14643), thereby inducing the cells to a state similar to that of cancer cachexia.
A C2C12 cell line was dispensed into a 6-well plate at 4.0×10^5 cells/well, and then cultured in DMEM medium containing 10% fetal bovine serum (FBS) under 37° C. and 5% CO2 conditions for one day. […]
A C2C12 cell line was dispensed into a 6-well plate at 4.0×10^5 cells/well, and then cultured in DMEM medium containing 10% fetal bovine serum (FBS) under 37° C. and 5% CO2 conditions for one day. […] The myotube diameter was measured using Image J to confirm the changes in diameter of myotube cells, and the results are shown in FIG. 37B.

PDK-4 [7] = assay: PDK-4 expression (Western blot) in C2C12 myotubes treated with inducers (no CCM); settings: 50 μM, 72 hours, vs UCM
Method: as §4
Subsequently, the expression of PDK-4, MuRF1, Atrogin1, MyHC, and Myogenin in the normal control group (UCM) and the activator-treated group (WY-14643) were analyzed by Western blot, and the results are shown in FIGS. 14A and 14B.
as §2, with “days. […]” for “days.”

MuRF1 [8] = assay: MuRF1 expression (Western blot) in C2C12 myotubes treated with inducers (no CCM); settings: 50 μM, 72 hours, vs UCM
Method: as §4
(§5) Subsequently, the expression of PDK-4, MuRF1, Atrogin1, MyHC, and Myogenin in the normal control group (UCM) and the activator-treated group (WY-14643) were analyzed by Western blot, and the results are shown in FIGS. 14A and 14B. […]
(§6) Subsequently, the expression of Calpain 3, MuRF1, Atrogin1, MyHC, and Myogenin in the normal control group (UCM), vehicle control group (scrambled siRNA), and Calpain 3 siRNA treated group was analyzed by Western blot, and the results are shown in FIGS. 16A and 16B. […]

Atrogin1 [9] = assay: Atrogin1 expression (Western blot) in C2C12 myotubes treated with inducers (no CCM); settings: 50 μM, 72 hours, vs UCM
Method: as §4, §5, §6

MyHC [10] = assay: MyHC expression (Western blot) in C2C12 myotubes treated with inducers (no CCM); settings: 50 μM, 72 hours, vs UCM
Method: as §4, §5, §6

Myogenin [11] = assay: Myogenin expression (Western blot) in C2C12 myotubes treated with inducers (no CCM); settings: 50 μM, 72 hours, vs UCM
Method: as §4, §5, §6

C2C12 myotube cells [12] = assay: Myotube diameter (crystal violet, Image J) of CCM-treated C2C12 myotubes; settings: C2C12 myotubes + CCM 1:1, 72 hours, predetermined concentration; compared to CCM
Method: A C2C12 cell line was dispensed into a 6-well plate at 4.0×10^5 cells/well, and then cultured in DMEM medium containing 10% fetal bovine serum (FBS) under 37° C. and 5% CO2 conditions for one day. When the cell density reached about 80%, the medium was replaced with a differentiation medium and the cells were cultured for additional 3 days. […] The myotube diameter was measured using Image J from the above image, and the change in myotube cell diameter is summarized in FIG. 17B. A C2C12 cell line was dispensed into a 6-well plate at 4.0×10^5 cells/well, and then cultured in DMEM medium containing 10% fetal bovine serum (FBS) under 37° C. and 5% CO2 conditions for one day. When the cell density reached about 80%, the medium was replaced with a differentiation medium and the cells were cultured for additional 3 days. […] The myotube diameter was measured using Image J from the above images, and the changes in myotube cell diameter are summarized in FIG. 24B.

[13] = C2C12 myotubes + CCM, 72 hours, compared to other experimental groups (components alone and in combination)
[14] = C2C12 myotubes, differentiation medium:CCM 1:1, 72 hours, three predetermined concentrations, vs CCM control

`CC(C)CC(N)C(=O)[O-].O=C1OC(C(O)CO)C([O-])=C1O.[Ca+2]` (centres unmarked) [Preparation Example 2, calcium salts of ascorbic acid and leucine] was tested, and the “expression of PDK-4” value (PDK-4 [1]) was “inhibited”, the “expression level of PDK-4” value (PDK-4 [1]) was “expression was inhibited” and the “expression level of Calpain 3” value (Calpain 3; [13]) was “higher expression level”. The “expression level of Calpain 3” value (Calpain 3; [14]) was “decrease in expression was inhibited”, the “expression of GDF-15” value (GDF-15) was “inhibited” and the “expression level of GDF-15” value (GDF-15) was “expression was inhibited”. The “expression of MuRF1” value (MuRF1 [2]) was “excellent effect of inhibiting the increase of expression”, the “expression of Atrogin1” value (Atrogin1 [3]) was “excellent effect of inhibiting the increase of expression” and the “expression of MyHC” value (MyHC [4]) was “excellent effect of inhibiting the decrease of expression”. The “expression of Myogenin” value (Myogenin [5]) was “excellent effect of inhibiting the decrease of expression”.
With `CC(C)CC(N)C(=O)[O-].O=C([O-])C(Cl)Cl.[Ca+2]` (centres unmarked) [Preparation Example 3, calcium salts of dichloroacetic acid and leucine] the “expression of PDK-4” value (PDK-4 [1]) was “inhibited”, the “expression level of PDK-4” value (PDK-4 [1]) was “expression was inhibited” and the “expression level of Calpain 3” value (Calpain 3; [13]) was “higher expression level”. The “expression level of Calpain 3” value (Calpain 3; [14]) was “decrease in expression was inhibited”, the “expression of GDF-15” value (GDF-15) was “inhibited” and the “expression level of GDF-15” value (GDF-15) was “expression was inhibited”. For the same molecule, the “expression of MuRF1” value (MuRF1 [2]) was “excellent effect of inhibiting the increase of expression”, the “expression of Atrogin1” value (Atrogin1 [3]) was “excellent effect of inhibiting the increase of expression” and the “expression of MyHC” value (MyHC [4]) was “excellent effect of inhibiting the decrease of expression”. The “expression of Myogenin” value (Myogenin [5]) was “excellent effect of inhibiting the decrease of expression”.
In the case of `Cc1cccc(Nc2cc(Cl)nc(SCC(=O)O)n2)c1C` [WY-14643], the “diameter of myotube cells” value (C2C12 myotube cells [6]; 50 μM, vs normal control (UCM)) is reported as “decreased”, the “expression of PDK-4” value (PDK-4 [7]) is reported as “up-regulated” and the “expression of MuRF1” value (MuRF1 [8]) is reported as “up-regulated”. The “expression of Atrogin1” value (Atrogin1 [9]) was “up-regulated”, the “expression of MyHC” value (MyHC [10]) was “down-regulated” and the “expression of Myogenin” value (Myogenin [11]) was “down-regulated”.
`O=C1O[C@H]([C@@H](O)CO)C(O)=C1O` [ascorbic acid, reference compound] was tested, and the “diameter of myotube cells” value (C2C12 myotube cells [12]) was “increased”.
With `C[C@@H]1C[C@H]2[C@@H]3CCC4=CC(=O)C=C[C@]4(C)[C@@]3(F)[C@@H](O)C[C@]2(C)[C@@]1(O)C(=O)CO` [dexamethasone] the “treatment concentration from which the myotube diameter started to decrease” value (C2C12 myotube cells [6]) was at least 1 µM.
In the case of `O=C(O)C(Cl)Cl` [dichloroacetic acid, reference compound], the “diameter of myotube cells” value (C2C12 myotube cells [12]) is reported as “increased”.
